{
  "source": "patent US20250206730A1",
  "about": "(AUTOTELIC BIO INC., priority 2022, published 2025)",
  "data": [
    {"test_system": "TGF-β signaling", "test": "Assay for evaluating cellular inhibition of TGF-β signaling, 4T1 (SBE-luc2P) luciferase reporter", "type": "cell-based", "conditions": "Mus musculus, 4T1, 4T1 (SBE-luc2P) transient pool, 0.2% FBS, 2 h pre-treatment, TGF-β1 2 ng/mL 24 h; read-out: IC50 4T1 Cell", "protocol": "[Example 2] Assay for Evaluating Cellular Inhibition of TGF-β Signaling\n4T1 (SBE-luc2P) transient pool that have SBE-luc2P (hygro) expression plasmid or HEK293 (SBE reporter) stable cells (BPS bioscience) were seeded at 6×10^3 cells/well or 2.5×10^4 cells/well in 96-well plate, respectively. 4T1 (SBE-luc2P) transient pool were pre-treated with novel compound synthesized in Example 1 above in 0.2% FBS at approximately 60% confluence at 37° C. in 5% CO2. Also, HEK293 (SBE reporter) stable cells were pre-treated with each test compounds of formula in 0.5% FBS at approximately 80% confluence at 37° C. in 5% CO2. After 2 hours, cells were treated with TGF-β1 (2 ng/mL) for 24 h at 37° C. in 5% CO2. Cell lysates were prepared using Luciferase Assay (Promega) according to the manufacturer's instruction, and luminescence was measured by a plate reader, Biotek Synergy H1 (Vermont, USA).", "units": {"IC50": "nM"}, "values": [
      {"smiles": "Nc1nc(-c2ccccc2)c(Oc2ccnc(Nc3cccnc3)c2)s1", "note": "[A-6, 4-Phenyl-5-((2-(pyridin-3-ylamino)pyridin-4-yl)oxy)thiazol-2-amine]", "IC50": "> 100"},
      {"smiles": "Nc1nc(-c2ccccc2)c(Oc2ccnc(Nc3ccc(F)nc3)c2)s1", "note": "[A-7, 5-((2-((6-Fluoropyridin-3-yl)amino)pyridin-4-yl)oxy)-4-phenylthiazol-2-amine]", "IC50": "> 100"},
      {"smiles": "Nc1nc(-c2ccccc2)c(Oc2ccnc(Nc3ccncc3)c2)s1", "note": "[A-8, 4-Phenyl-5-((2-(pyridin-4-ylamino)pyridin-4-yl)oxy)thiazol-2-amine]", "IC50": "> 100"},
      {"smiles": "NC(=O)c1ccc(Nc2cc(Oc3sc(N)nc3-c3ccccc3)ccn2)cn1", "note": "[A-11, 5-((4-((2-Amino-4-phenylthiazol-5-yl)oxy)pyridin-2-yl)amino)picolinamide]", "IC50": "> 100"},
      {"smiles": "CNS(=O)(=O)c1cccc(Nc2cc(Oc3sc(N)nc3-c3ccccc3)ccn2)c1", "note": "[A-12, 3-((4-((2-Amino-4-phenylthiazol-5-yl)oxy)pyridin-2-yl)amino)-N-methylbenzenesulfonamide]", "IC50": "< 100"},
      {"smiles": "CN(C)S(=O)(=O)c1cccc(Nc2cc(Oc3sc(N)nc3-c3ccccc3)ccn2)c1", "note": "[A-13, 3-((4-((2-Amino-4-phenylthiazol-5-yl)oxy)pyridin-2-yl)amino)-N,N-dimethylbenzenesulfonamide]", "IC50": "< 100"},
      {"smiles": "CS(=O)(=O)c1cccc(Nc2cc(Oc3sc(N)nc3-c3ccccc3)ccn2)c1", "note": "[A-15, 5-((2-((3-(Methylsulfonyl)phenyl)amino)pyridin-4-yl)oxy)-4-phenylthiazol-2-amine]", "IC50": "< 100"},
      {"smiles": "Nc1nc(-c2ccccc2)c(Oc2ccnc(Nc3cccc(NS(=O)(=O)C4CC4)c3)c2)s1", "note": "[A-16, N-(3-((4-((2-Amino-4-phenylthiazol-5-yl)oxy)pyridin-2-yl)amino)phenyl)cyclopropanesulfonamide]", "IC50": "< 100"},
      {"smiles": "Nc1nc(-c2ccccc2)c(Oc2ccnc(Nc3cccc(S(=O)(=O)C(F)(F)F)c3)c2)s1", "note": "[A-17, 4-Phenyl-5-((2-((3-((trifluoromethyl)sulfonyl)phenyl)amino)pyridin-4-yl)oxy)thiazol-2-amine]", "IC50": "> 100"},
      {"smiles": "Nc1nc(-c2ccccc2)c(Oc2ccnc(Nc3cccc(S(=O)(=O)O)c3)c2)s1", "note": "[A-18, 3-((4-((2-Amino-4-phenylthiazol-5-yl)oxy)pyridin-2-yl)amino)benzenesulfonic acid]", "IC50": "> 100"},
      {"smiles": "CS(=O)(=O)Cc1cccc(Nc2cc(Oc3sc(N)nc3-c3ccccc3)ccn2)c1", "note": "[A-19, 5-((2-((3-((Methylsulfonyl)methyl)phenyl)amino)pyridin-4-yl)oxy)-4-phenylthiazol-2-amine]", "IC50": "< 100"},
      {"smiles": "Nc1nc(-c2ccccc2)c(Oc2ccnc(Nc3cccc(S(=O)(=O)NC4CC4)c3)c2)s1", "note": "[A-20, 3-((4-((2-Amino-4-phenylthiazol-5-yl)oxy)pyridin-2-yl)amino)-N-cyclopropylbenzenesulfonamide]", "IC50": "< 100"},
      {"smiles": "Nc1nc(-c2ccccc2)c(Oc2ccnc(NCc3cccc(F)c3)c2)s1", "note": "[A-21, 5-((2-((3-Fluorobenzyl)amino)pyridin-4-yl)oxy)-4-phenylthiazol-2-amine]", "IC50": "> 100"},
      {"smiles": "NC(=O)c1ccnc(Nc2cc(Oc3sc(N)nc3-c3ccccc3)ccn2)c1", "note": "[A-22, 2-((4-((2-Amino-4-phenylthiazol-5-yl)oxy)pyridin-2-yl)amino)isonicotinamide]", "IC50": "< 100"},
      {"smiles": "CNC(=O)c1cccc(Nc2cc(Oc3sc(N)nc3-c3ccccc3)ccn2)c1", "note": "[A-23, 3-((4-((2-Amino-4-phenylthiazol-5-yl)oxy)pyridin-2-yl)amino)-N-methylbenzamide]", "IC50": "< 100"},
      {"smiles": "COc1cc(Nc2cc(Oc3sc(N)nc3-c3ccccc3)ccn2)ccn1", "note": "[A-24, 5-((2-((2-Methoxypyridin-4-yl)amino)pyridin-4-yl)oxy)-4-phenylthiazol-2-amine]", "IC50": "< 100"},
      {"smiles": "Nc1nc(-c2ccccc2)c(Oc2ccnc(NCc3ccccc3)c2)s1", "note": "[A-25, 5-((2-(Benzylamino)pyridin-4-yl)oxy)-4-phenylthiazol-2-amine]", "IC50": "> 100"}
    ]}
  ]
}
